Experiment: LC–MS/MS analysis of serum and urine samples of intoxication cases
Format: in vivo, human
Conditions: for Concentration in serum: patient serum; for Finding in urine: patient urine
Protocol: The data on intoxication cases used for the development of this risk score were obtained from a prospective study. This study included patients who were treated in an emergency department room following the consumption of an NPS. Clinical symptoms and follow‐up information were documented using a structured questionnaire completed by the attending physicians. The methodology has been previously published. Residual serum (obtained from venous blood) and urine samples, accompanied by the completed questionnaires, were sent to the Poisons Information Center Freiburg for further analysis. The toxicological analyses of serum and urine samples were conducted at the Institute of Forensic Medicine Freiburg. No data was available on previous consumption patterns or potential development of tolerance after continued misuse. The study was conducted in accordance with the Declaration of Helsinki and approved by the regional ethics committee of the University of Freiburg (no. 235/13_130683). The intoxication cases included in this study are those in which SCRA use was confirmed by liquid chromatography tandem mass spectrometry (LC–MS/MS).
Serum/blood and urine analyses were conducted at the Institute of Forensic Medicine Freiburg using previously published LC–MS/MS methods, that were modified by adding further analytes present in ‘legal‐high’ products (‘herbal blends’, ‘C‐liquids’ or ‘research chemicals’), and covered approximately 100 different SCRAs. Detailed information can be found in the Supporting Information.
Urine samples were analysed according to previously published and validated method by Franz et al.^2. For sample preparation 0.5 mL of phosphate buffer (pH 6) and 30 μL of β-glucuronidase were added to 0.5 mL of urine. Incubation was for 60 min at 45°C. This was followed by protein precipitation using 1.5 mL acetonitrile containing the internal standard (c = 2 ng/mL) and 0.56 mL 10 M ammonium formate solution, followed by shaking and centrifugation. 1 mL of the organic phase was transferred into an autosampler vial and evaporated to dryness under N2. The samples were reconstituted in 200 μL mobile phase.
Urine sample analysis was performed on a Dionex UltiMate® 3000RS UHPLC (Thermo Scientific, Dreieich, Germany) coupled to an API 5000^TM triple quadrupole instrument with a TurboIonSpray® interface (Sciex, Darmstadt, Germany). Separation was performed on a Luna C18 100 Å (150 x 2 mm, 5 μm) column with the mobile phase consisting of 0.2% HCOOH and 2 mmol/L NH^4+HCOO^− in water (A) and acetonitrile (B).

With CC(C)C(NC(=O)c1nn(CC2CCCCC2)c2ccccc12)C(N)=O (centres unmarked) the Concentration in serum (intoxication case A (AB‐CHMINACA)) was 9.5 ng/mL, the Finding in urine (intoxication case A) was “positive” and the Concentration in serum (intoxication case B (AB‐CHMINACA)) was 27 ng/mL. For the same molecule, the Concentration in serum (intoxication case B (AB‐CHMINACA), listed as AB-CHMINACA) was “ca. 27 ng/mL” and the Finding in urine (intoxication case B) was “positive”.

— PMC12980303, “Development of a novel risk score reflecting the relative harm potential of synthetic cannabinoids based on prevalence estimates, well‐documented intoxication cases and basic pharmacological data” (Addiction (Abingdon, England), 2025)
